Test results reported in patent publication US7176231B2, “Aryl-containing 5-acylindolinones, the preparation thereof and their use as medicaments” (Boehringer Ingelheim International GmbH, priority 2004, dated 2007).

What was measured:
db/db mice = test: Oral glucose tolerance test; format: in vivo; conditions: fasted db/db mice, 2 g/kg glucose orally 30 minutes after substance
Method: Fasted db/db mice 7 to 9 weeks old (Janvier, France) are weighed and blood is taken from the tip of the tail. This blood is used for the first measurement of glucose on the basis of which the animals are randomised and divided into groups. The test substance to be tested may be given either orally or i.p. as a suspension in 0.5% Natrosol. 30 minutes after the administration of the substance the animals are given orally 2 g/kg glucose in a volume of 0.1 ml/100 g body weight dissolved in NaCl solution. Subsequently, the glucose values are determined from the tail blood using a glucometer (Ultra OneTouch, Lifescan) at specific time intervals [30, 60, 120 and 180 minutes after oral administration of the glucose].

mice = test: Tolerability after oral administration to mice; format: in vivo; conditions: oral administration of 10 mg/kg to mice

CC(=O)c1ccc2c(c1)/C(=C(/Nc1ccc(CN(C)C)cc1)c1ccc3c(c1)OCCO3)C(=O)N2 [Example 1.051, 5-acetyl-3-{[4-(dimethylamino-methyl)-phenylamino]-(2,3-dihydro-benzo[1,4]-dioxin-6-yl)-methylidene}-2-indolinone]
activity in the oral glucose tolerance test (db/db mice): significant activity
changes in the animals' behaviour (mice): no changes were observed
